Test results: US7081460B2, “Quinazoline and quinazoline-like compounds for the treatment of integrin-mediated disorders” (Ortho-McNeil Pharmaceutical, Inc., priority 2001, dated 2006)

Legend:
GPIIb/IIIa = GPIIb/IIIa (Homo sapiens, UniProt P05106+P08514); assay: In vitro solid phase purified glycoprotein IIb/IIIa binding assay (biotinylated fibrinogen); details: RGD-affinity purified GPIIb/IIIa, biotinylated fibrinogen; read-out: GPIIb/IIIa Binding IC50
Protocol: (§1) In vitro Solid Phase Purified αvβ3 Binding Assay The vitronectin/αvβ3 binding assay methods were derived from Mehta et al. (Biochem J. 1998, 330, 861). Human αvβ3 (Chemicon International Inc., Temecula, Calif.), at a concentration of 1 μg/ml dissolved in Tris buffer (20 mM Tris, 1 mM CaCl2, 1 mM MgCl2, 10 μM MnCl2, 150 mM NaCl), was immobilized on Immulon 96 well plates (Dynex Technologies, Chantilly, Va.) overnight at 4° C. Plates were washed and treated with blocking buffer (3% BSA in Tris buffer) for 2 h at 37 C. Plates were then rinsed 2 times in Tris buffer containing 0.3% BSA and 0.2% Tween20 (polyoxyethylenesorbitan monolaurate). Five minutes prior to the addition of 5 nM vitronectin (Sigma, St. Louis, Mo.), compounds of the invention were added to wells in duplicate. Each plate included c-RGDfV as an internal control. Following a 3 hour incubation at 37° C., plates were washed 5 times in assay buffer. An anti-human vitronectin IgG rabbit polyclonal antibody (Calbiochem, San Diego, Calif.) was added (1:2000) and plates were incubated for 1 hour at room temperature. VectaStain ABC peroxidase kit reagents (Vector Laboratories, Burlingame, Calif.) employing a biotin labeled anti-rabbit IgG, were utilized for detection of bound antibody. Plates were read at 490 nm on a Molecular Devices (Sunnyvale, Calif.) microplate reader. […] The plate was covered and incubated overnight at 4° C. The GPIIb/IIIa solution was discarded and 150 μl of 5% BSA was added and incubated at RT for 1–3 h. The plate was washed extensively with modified Tyrodes buffer. Biotinylated fibrinogen (25 μl/well) at 2× final concentration was added to the wells that contain the test compounds (25 μl/well). The plate was covered and incubated at RT for 2–4 h. Twenty minutes prior to incubation completion, one drop of Reagent A (VectaStain ABC Horse Radish Peroxidase kit, Vector Laboratories, Inc.) and one drop Reagent B were added with mixing to 5 mL modified Tyrodes buffer mix and let stand. The ligand solution was discarded and the plate washed (5×200 μl/well) with modified Tyrodes buffer. Vecta Stain HRP-Biotin-Avidin reagent (50 μl/well, as prepared above) was added and incubated at RT for 15 min. The Vecta Stain solution was discarded and the wells washed (5×200 μl/well) with modified Tyrodes buffer. Developing buffer (10 mL of 50 mM citrate/phosphate buffer @ pH 5.3, 6 mg o-phenylenediamine, 6 μl 30% H2O2; 50 μl/well) was added and incubated at rt for 3–5 min, and then 2 N H2SO4 (50 μl/well) was added. The absorbance was read at 490 nm.

Human αvβ3 = target: T1, Human αvβ3 (Homo sapiens, UniProt P05106+P06756); assay: In vitro solid phase purified αvβ3 binding assay (vitronectin/αvβ3); details: isolated human αvβ3, 5 nM vitronectin; read-out: αvβ3 Binding IC50
T1 construct: purchased Chemicon International Inc., Temecula, Calif
T1 sequence (P06756 31-889 limits assumed): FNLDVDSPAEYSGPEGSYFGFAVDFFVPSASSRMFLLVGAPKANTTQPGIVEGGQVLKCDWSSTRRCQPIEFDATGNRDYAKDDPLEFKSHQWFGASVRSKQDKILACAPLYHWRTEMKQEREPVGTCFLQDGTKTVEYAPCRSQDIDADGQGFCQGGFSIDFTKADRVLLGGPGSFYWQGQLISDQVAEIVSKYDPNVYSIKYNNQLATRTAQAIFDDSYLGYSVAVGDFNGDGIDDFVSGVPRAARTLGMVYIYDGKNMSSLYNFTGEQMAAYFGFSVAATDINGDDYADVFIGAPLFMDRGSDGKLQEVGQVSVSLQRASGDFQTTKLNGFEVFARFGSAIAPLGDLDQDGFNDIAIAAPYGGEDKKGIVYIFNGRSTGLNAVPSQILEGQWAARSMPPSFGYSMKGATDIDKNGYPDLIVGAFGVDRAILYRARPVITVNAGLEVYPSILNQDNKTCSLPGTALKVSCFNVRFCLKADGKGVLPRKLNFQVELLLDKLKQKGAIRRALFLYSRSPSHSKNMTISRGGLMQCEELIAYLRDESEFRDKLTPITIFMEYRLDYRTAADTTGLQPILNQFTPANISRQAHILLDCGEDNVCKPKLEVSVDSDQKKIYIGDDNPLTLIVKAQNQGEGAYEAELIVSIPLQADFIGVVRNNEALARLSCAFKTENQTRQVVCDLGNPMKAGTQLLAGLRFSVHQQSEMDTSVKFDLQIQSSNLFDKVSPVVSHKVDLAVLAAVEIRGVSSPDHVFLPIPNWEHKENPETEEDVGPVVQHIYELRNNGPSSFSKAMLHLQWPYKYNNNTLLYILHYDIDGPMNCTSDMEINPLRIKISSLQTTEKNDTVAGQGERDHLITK
T1 sequence (P06756 891-1048 partner limits assumed): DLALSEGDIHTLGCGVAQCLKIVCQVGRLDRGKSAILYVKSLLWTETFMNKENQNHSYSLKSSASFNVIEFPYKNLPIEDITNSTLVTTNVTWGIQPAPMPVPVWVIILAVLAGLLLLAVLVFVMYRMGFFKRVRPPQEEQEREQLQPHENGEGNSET
T1 sequence (P05106 27-788): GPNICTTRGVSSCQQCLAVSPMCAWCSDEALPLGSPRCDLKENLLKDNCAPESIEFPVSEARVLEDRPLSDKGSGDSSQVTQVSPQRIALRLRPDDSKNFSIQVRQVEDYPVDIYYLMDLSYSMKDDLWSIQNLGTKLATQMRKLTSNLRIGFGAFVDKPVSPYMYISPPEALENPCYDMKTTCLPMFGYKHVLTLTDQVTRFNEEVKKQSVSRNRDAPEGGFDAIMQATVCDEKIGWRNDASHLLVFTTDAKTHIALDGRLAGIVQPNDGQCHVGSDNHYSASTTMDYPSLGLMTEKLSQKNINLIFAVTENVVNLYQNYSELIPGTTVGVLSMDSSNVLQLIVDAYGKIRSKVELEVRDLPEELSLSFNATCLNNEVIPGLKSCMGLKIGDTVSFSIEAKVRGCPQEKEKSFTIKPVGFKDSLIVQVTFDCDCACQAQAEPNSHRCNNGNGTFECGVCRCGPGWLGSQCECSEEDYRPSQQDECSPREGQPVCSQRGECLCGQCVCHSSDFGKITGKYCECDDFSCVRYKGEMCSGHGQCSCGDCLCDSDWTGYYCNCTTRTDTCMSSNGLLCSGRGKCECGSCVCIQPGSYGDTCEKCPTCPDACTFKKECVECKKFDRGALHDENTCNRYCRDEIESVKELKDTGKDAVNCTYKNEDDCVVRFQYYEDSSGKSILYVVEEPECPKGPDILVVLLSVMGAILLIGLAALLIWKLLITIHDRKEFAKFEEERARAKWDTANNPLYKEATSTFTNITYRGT
Protocol: as §1

Sequence of GPIIb/IIIa (P08514 32-887 limits assumed): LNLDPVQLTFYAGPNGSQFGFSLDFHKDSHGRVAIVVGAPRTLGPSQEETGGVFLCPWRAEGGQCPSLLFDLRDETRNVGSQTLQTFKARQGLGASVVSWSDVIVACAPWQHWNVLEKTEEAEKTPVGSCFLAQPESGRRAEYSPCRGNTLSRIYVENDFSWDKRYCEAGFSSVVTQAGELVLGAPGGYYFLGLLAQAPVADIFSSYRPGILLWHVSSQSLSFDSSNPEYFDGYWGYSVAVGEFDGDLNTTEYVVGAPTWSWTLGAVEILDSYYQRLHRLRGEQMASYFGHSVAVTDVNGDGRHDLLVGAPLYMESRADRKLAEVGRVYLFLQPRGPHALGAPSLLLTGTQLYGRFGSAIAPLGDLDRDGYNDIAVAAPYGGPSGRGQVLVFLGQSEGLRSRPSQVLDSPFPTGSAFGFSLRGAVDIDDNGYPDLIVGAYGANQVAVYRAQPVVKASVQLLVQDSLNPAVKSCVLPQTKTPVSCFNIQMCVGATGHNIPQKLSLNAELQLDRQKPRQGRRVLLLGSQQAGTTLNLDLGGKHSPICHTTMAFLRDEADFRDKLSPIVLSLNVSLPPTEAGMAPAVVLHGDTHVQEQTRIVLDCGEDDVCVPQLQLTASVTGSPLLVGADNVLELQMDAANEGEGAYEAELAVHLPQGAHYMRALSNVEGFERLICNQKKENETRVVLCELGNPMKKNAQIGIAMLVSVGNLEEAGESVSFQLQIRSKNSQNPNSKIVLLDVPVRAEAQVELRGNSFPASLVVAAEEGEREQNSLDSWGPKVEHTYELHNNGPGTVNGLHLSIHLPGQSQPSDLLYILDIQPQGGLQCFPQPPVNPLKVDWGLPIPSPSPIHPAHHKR
Sequence of GPIIb/IIIa (P08514 891-1039 partner limits assumed): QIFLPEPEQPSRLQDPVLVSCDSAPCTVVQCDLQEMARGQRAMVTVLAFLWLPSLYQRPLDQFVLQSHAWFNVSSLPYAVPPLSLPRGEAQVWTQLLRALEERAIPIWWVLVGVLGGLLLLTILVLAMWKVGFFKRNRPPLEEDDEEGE
Sequence of GPIIb/IIIa (P05106 27-788): as the sequence (P05106 27-788) above

Compound	IC50 (GPIIb/IIIa) [nM]	IC50 (Human αvβ3) [nM]
O=C(N[C@@H](Cc1nc2ccc(/C=C/CNC3=NCCN3)cc2c(=O)[nH]1)C(=O)O)OCc1ccccc1 [Compound 2, 6-[(1E)-3-[(4,5-dihydro-1H-imidazol-2-yl)amino]-1-propenyl]-(αS)-3,4-dihydro-4-oxo-α-[[(phenylmethoxy)carbonyl]amino]-2-quinazolinepropanoic Acid]	560	55
O=C(O)[C@H](Cc1nc2ccc(/C=C/CNC3=NCCN3)cc2c(=O)[nH]1)NS(=O)(=O)CCc1cccc2ccccc12 [Compound 5, 6-[(1E)-3-[(4,5-dihydro-1H-imidazol-2-yl)amino]-1-propenyl]-(αS)-3,4-dihydro-α-[[[2-(1-naphthalenyl)ethyl]sulfonyl]amino]-4-oxo-2-quinazolinepropanoic Acid]	670	8.6
O=C(N[C@@H](Cc1nc2ccc(/C=C/CCNC3=NCCN3)cc2c(=O)[nH]1)C(=O)O)OCc1ccccc1 [Compound 8, 6-[(1E)-4-[(4,5-dihydro-1H-imidazol-2-yl)amino]-1-butenyl]-(αS)-3,4-dihydro-4-oxo-α-[[(phenylmethoxy)carbonyl]amino]-2-quinazolinepropanoic Acid]	580	210
Cc1c(C)c(C)c(S(=O)(=O)N[C@@H](Cc2nc3ccc(/C=C/CNc4ccccn4)cc3c(=O)[nH]2)C(=O)O)c(C)c1C [Compound 10, (αS)-3,4-dihydro-4-oxo-α-[[(2,3,4,5,6-pentamethylphenyl)sulfonyl]amino]-6-[(1E)-3-(2-pyridinylamino)-1-propenyl]-2-quinazolinepropanoic Acid]	640	6.1
Cc1c(C)c(C)c(S(=O)(=O)N[C@@H](Cc2nc3ccc(CCCNc4ccccn4)cc3c(=O)[nH]2)C(=O)O)c(C)c1C [Compound 11, (αS)-3,4-dihydro-4-oxo-α-[[(2,3,4,5,6-pentamethylphenyl)sulfonyl]amino]-6-[3-(2-pyridinylamino)propyl]-2-quinazolinepropanoic Acid]	640	9.6
O=C(Nc1ccccc1)N[C@@H](Cc1nc2ccc(/C=C/CNc3ccccn3)cc2c(=O)[nH]1)C(=O)O [Compound 12, (αS)-3,4-dihydro-4-oxo-α-[[(phenylamino)carbonyl]amino]-6-[(E)-3-(2-pyridinylamino)-1-propenyl]-2-quinazolinepropanoic Acid]	18000	> 500
Cc1c(C)c(C)c(S(=O)(=O)N[C@@H](Cc2nc3ccc(/C=C/CNC(=O)Nc4ccccc4)cc3c(=O)[nH]2)C(=O)O)c(C)c1C [Compound 13, (αS)-3,4-dihydro-4-oxo-α-[[(2,3,4,5,6-pentamethylphenyl)sulfonyl]amino]-6-[(1E)-3-[[(phenylamino)carbonyl]amino]-1-propenyl]-2-quinazolinepropanoic Acid]	1700	140
Cc1c(C)c(C)c(S(=O)(=O)N[C@H](CC(=O)O)c2nc3ccc(/C=C/CNc4ccccn4)cc3c(=O)[nH]2)c(C)c1C [Compound 14, (βR)-3,4-dihydro-4-oxo-β-[[(2,3,4,5,6-pentamethylphenyl)sulfonyl]amino]-6-[(1E)-3-(2-pyridinylamino)-1-propenyl]-2-quinazolinepropanoic Acid]	1800	25
CC(C)(C)c1ccc(S(=O)(=O)N[C@@H](Cc2nc3ccc(/C=C/CNc4ccccn4)cc3c(=O)[nH]2)C(=O)O)cc1 [Compound 23, α-[[[4-(1,1-dimethylethyl)phenyl]sulfonyl]amino]-(αS)-3,4-dihydro-4-oxo-6-[(1E)-3-(2-pyridinylamino)-1-propenyl]-2-quinazolinepropanoic acid]	6400	
Cc1c(C)c(C)c(S(=O)(=O)N[C@@H](Cc2nc3ccc(/C=C/CNC(=O)NCCc4ccccc4)cc3c(=O)[nH]2)C(=O)O)c(C)c1C [Compound 80, (αS)-3,4-dihydro-4-oxo-α-[[(2,3,4,5,6-pentamethylphenyl)sulfonyl]amino]-6-[(1E)-3-[[[(2-phenylethyl)amino]carbonyl]amino]-1-propenyl]-2-quinazolinepropanoic acid]	2700	

Stronger by IC50 (GPIIb/IIIa), values ahead:

IC50 (GPIIb/IIIa) [nM]	IC50 (Human αvβ3) [nM]	Compound
330	7	6-[(1E)-3-[(4,5-dihydro-1H-imidazol-2-yl)amino]-1-propenyl]-(αS)-3,4-dihydro-4-oxo-α-[[[(E)-2-phenylethenyl]sulfonyl]amino]-2-quinazolinepropanoic Acid [Compound 7]
36	268	6-[(1E)-4-[[(aminoiminomethyl)amino]oxy]-1-butenyl]-(αS)-3,4-dihydro-4-oxo-α-[[(2,3,4,5,6-pentamethylphenyl)sulfonyl]amino]-2-quinazolinepropanoic Acid [Compound 16]
24	0.75	Cc1c(C)c(C)c(S(=O)(=O)N[C@@H](Cc2nc3ccc(/C=C/CNC4=NCCN4)cc3c(=O)[nH]2)C(=O)O)c(C)c1C [Compound 1, 6-[(1E)-3-[(4,5-dihydro-1H-imidazol-2-yl)amino]-1-propenyl]-(αS)-3,4-dihydro-4-oxo-α-[[(2,3,4,5,6-pentamethylphenyl)sulfonyl]amino]-2-quinazolinepropanoic Acid]
78	3.2	Cc1cc(C)c(S(=O)(=O)N[C@@H](Cc2nc3ccc(/C=C/CNC4=NCCN4)cc3c(=O)[nH]2)C(=O)O)c(C)c1 [Compound 3, 6-[(1E)-3-[(4,5-dihydro-1H-imidazol-2-yl)amino]-1-propenyl]-(αS)-3,4-dihydro-4-oxo-a-[[(2,4,6-trimethylphenyl)sulfonyl]amino]-2-quinazolinepropanoic Acid]
320	14	O=C(O)[C@H](Cc1nc2ccc(/C=C/CNC3=NCCN3)cc2c(=O)[nH]1)NS(=O)(=O)c1cccc2cccnc12 [Compound 4, 6-[(1E)-3-[(4,5-dihydro-1H-imidazol-2-yl)amino]-1-propenyl]-(αS)-3,4-dihydro-4-oxo-α-[(8-quinolinylsulfonyl)amino]-2-quinazolinepropanoic Acid]
41	5.3	O=C(O)[C@H](Cc1nc2ccc(/C=C/CNC3=NCCN3)cc2c(=O)[nH]1)NS(=O)(=O)c1ccc(-c2ccccn2)s1 [Compound 6, 6-[(1E)-3-[(4,5-dihydro-1H-imidazol-2-yl)amino]-1-propenyl]-(αS)-3,4-dihydro-4-oxo-α-[[[5-(2-pyridinyl)-2-thienyl]sulfonyl]amino]-2-quinazolinepropanoic Acid]
88	> 5000	O=C(N[C@@H](Cc1nc2ccc(-c3cccc(NC4=NCCN4)c3)cc2c(=O)[nH]1)C(=O)O)OCc1ccccc1 [Compound 9, 6-[3-[(4,5-dihydro-1H-imidazol-2-yl)amino]phenyl]-(αS)-3,4-dihydro-4-oxo-α-[[(phenylmethoxy)carbonyl]amino]-2-quinazolinepropanoic Acid]
77	18	Cc1c(C)c(C)c(S(=O)(=O)N[C@@H](Cc2nc3ccc(/C=C/CNC4=NCCC4)cc3c(=O)[nH]2)C(=O)O)c(C)c1C [Compound 15, 6-[(1E)-3-[(3,4-dihydro-2H-pyrrol-5-yl)amino]-1-propenyl]-(αS)-3,4-dihydro-4-oxo-α-[[(2,3,4,5,6-pentamethylphenyl)sulfonyl]amino]-2-quinazolinepropanoic Acid]
